Measurements published in US10611727B2, “1-[1-(benzoyl)-pyrrolidine-2-carbonyl]-pyrrolidine-2-carbonitrile derivatives” (UNIVERSITAT DE BARCELONA, priority 2012, dated 2020).

Key:
[1] = Parallel artificial membrane permeability assay (PAMPA), porcine polar brain lipid extract; format: in vitro ADME; settings: 200 μM, pH 7.4, 4 hours
Description: Parallel artificial membrane permeability assay (PAMPA) described in Kansy M et al., J. Med. Chem. 1998; […]:1007-10 was used to determine the capacity of compounds to cross the Blood-Brain Barrier (BBB) by passive diffusion (Di L et al., Eur. J. Med. Chem. 2003; 38(3):223-32). The effective permeability (Pe) of the compounds was measured at an initial concentration of 200 μM. The buffer solution was prepared from a commercial concentrated one following the manufacturer's instructions. pH was adjusted to 7.4 using a 0.5 M NaOH solution. A stock solution of new compound was prepared in DMSO and diluted with buffer solution to a final 200 μM concentration (0.5% DMSO content). The PAMPA sandwich was separated and each donor well was filled with 200 μL of the compound solution. […] After 4 hours, the contents of the acceptor and donor compartments were analyzed by HPLC: 150 μL of each well from the donor plate and 150 μL of each well from the acceptor plate were transferred to HPLC vials, injecting each sample into a reverse-phase C18 column (150 mm×4.6 mm×5 μm, 100 Å) (100 μL/injection from the acceptor wells, 10 μL/injection from the donor wells and for t0 references). […]
The effective permeability (Pe) after 4 hours was calculated using equation 2 and the percentage of transport was calculated using equation 3: […]

[2] = system: MK-801-induced memory impairment; test: Passive avoidance task, MK-801 cognition impairment model; format: in vivo, rodents (mice or rats); settings: s.c. 35 min before shock session; MK-801 i.p. 15 min later; FIG. 2
Description: The new compounds were evaluated for their efficacy as cognition enhancers in a pharmacological model for cognitive impairment. The effects of the new compounds were evaluated in untreated and MK-801-treated rodents (mice or rats). MK-801 is a non-competitive antagonist of the N-Methyl-D-aspartate (NMDA) receptor which impairs animal performance in various learning and memory paradigms (Castellano C et al., Curr. Drug Targets 2001; 2:273-83; Riedel G et al., Behav. Brain Res. 2003; 140:1-47). MK-801 also produces various effects on rodent behavior, including deficits in sensory processing, hypermotility, stereotypy and ataxia. […]
For the evaluation of the passive avoidance task, a two-compartment box with a light compartment and a dark compartment of the same dimensions was used. […] In the evaluation session, the time which the animal takes to enter the dark compartment (in seconds) was measured, as a sign of memory retention of the shock received in the dark compartment during the previous session. […] The corresponding evaluated compound was injected s.c. 35 min before the shock session, followed 15 minutes later by i.p. injection of MK-801, or PBS in the case of the control, in the same doses and volume as described for the object recognition test.

[3] = target: human prolyl oligopeptidase (Homo sapiens (Human), UniProt P48147); test: POP inhibition assay (Z-G-P-AMC substrate, fluorimetric); format: biochemical; settings: 100 mM Na/K phosphate buffer pH 8.0, hPOP 20 to 60 nM
Chain of human prolyl oligopeptidase (P48147 whole entry): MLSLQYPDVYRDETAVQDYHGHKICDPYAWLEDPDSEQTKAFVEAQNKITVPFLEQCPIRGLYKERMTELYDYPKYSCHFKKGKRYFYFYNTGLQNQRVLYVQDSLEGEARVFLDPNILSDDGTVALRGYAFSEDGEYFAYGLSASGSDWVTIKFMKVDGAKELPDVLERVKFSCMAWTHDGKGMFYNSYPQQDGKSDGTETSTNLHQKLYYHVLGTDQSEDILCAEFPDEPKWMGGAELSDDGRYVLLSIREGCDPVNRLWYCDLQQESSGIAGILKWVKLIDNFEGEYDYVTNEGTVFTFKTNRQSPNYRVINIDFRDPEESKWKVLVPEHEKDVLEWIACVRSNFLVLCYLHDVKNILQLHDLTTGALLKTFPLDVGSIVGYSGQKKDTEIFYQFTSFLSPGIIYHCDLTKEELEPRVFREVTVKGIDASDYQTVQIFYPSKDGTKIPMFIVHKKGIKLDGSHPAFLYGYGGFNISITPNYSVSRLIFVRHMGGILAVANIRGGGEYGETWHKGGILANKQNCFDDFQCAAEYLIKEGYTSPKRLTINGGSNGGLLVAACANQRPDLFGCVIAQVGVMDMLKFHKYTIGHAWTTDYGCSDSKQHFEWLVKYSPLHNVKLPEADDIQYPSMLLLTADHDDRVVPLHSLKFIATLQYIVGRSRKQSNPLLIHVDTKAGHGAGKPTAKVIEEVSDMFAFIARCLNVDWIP
Description: hPOP expression: E. coli BL21 competent cells were transformed with pETM10 hPOP. To induce expression, a pre-culture of LB medium (50 mL) containing kanamycin (50 μg/mL) was inoculated with one colony and was grown overnight at 37° C., Next day, two cultures of LB medium (500 ml) were inoculated with the overnight culture (10 mL). The inoculated cultures were grown at 37° C. and 220 rpm until the OD595 was 1.2 (2.5-3 hours). […] The column was washed with suspension buffer until the absorbance at 280 nm returned to basal level. […] POP activity was checked in all fractions and positive ones were analyzed by SDS-PAGE and stained with Biosafe Comassie Stain G-250. […] Recombinant hPOP was quantified with the Bio-Rad Protein Assay with BSA as standard, Aliquots of the recombinant enzyme were prepared and immediately frozen with liquid nitrogen and stored at −80° C.
POP activity was determined following the method described by Toide et al (Toide K et al., J. Pharmacol. Exp. Ther. 1995; 274:1370-8), using Z-G-P-AMC (N-benzyloxycarbonyl-Gly-Pro-methylcoumarinyl-7-amide) as POP substrate. […]
After preincubation, Z-G-P-AMC (10 μl, 3 mM in 40% 1,4-dioxane) was added (3 μL 1.5 mM in 40% of 1,4-dioxane, in Conditions B), and the reaction was incubated for 1 hour at 37° C. The reaction was stopped by adding sodium acetate (150 μl, 1 M, pH 4) and the formation of AMC was measured fluorimetrically. […]

Structure (SMILES): COc1cc(C(=O)N2C[C@H](OC)C[C@H]2C(=O)N2CCC[C@H]2C#N)cc(OC)c1OCc1ccccc1 [Example 1, (S)-1-((2S,4R)-1-(4-(benzyloxy)-3,5-dimethoxybenzoyl)-4-methoxypyrrolidine-2-carbonyl)pyrrolidine-2-carbonitrile]
- % T (percentage of transport) [1]: 4.3%

Structure (SMILES): COc1cc(C(=O)N2CC(F)(F)C[C@H]2C(=O)N2CCC[C@H]2C#N)cc(OC)c1OCc1ccccc1 [Example 4, (S)-1-((2S)-1-(4-(benzyloxy)-3,5-dimethoxybenzoyl)-4,4-difluoropyrrolidine-2-carbonyl)pyrrolidine-2-carbonitrile]
- Reversal of MK-801-induced memory impairment in the passive avoidance test [2]: able to reverse MK-801-induced memory Impairment

Structure (SMILES): COc1cc(C(=O)N2CC(F)(F)C[C@H]2C(=O)N2CCC[C@H]2C#N)cc(OCc2ccccc2)c1OCc1ccccc1 [Example 13, (S)-1-((2S)-1-(3,4-dibenzyloxy-5-methoxybenzoyl)-4,4-difluoropyrrolidine-2-carbonyl)pyrrolidine-2-carbonitrile]
- IC50 [3]: 336 nM
